We go through five compounds from publication PMC12444563 (ACS Omega, 2025).

“Also recorded” adds a separate entry of the source. Starred links: 1 amine or outer side, 2 acyl side, 3 side chain; linkers in the order of their positions; H or OH if unused. Non-standard residues stand in square brackets, D forms with d. Residues, ends and D or L forms follow the SMILES beside them. *: point of attachment. Paclitaxel(2'-OCO-DMEDA) = CC(=O)O[C@H]1C(=O)[C@@]2(C)[C@H]([C@H](OC(=O)c3ccccc3)[C@]3(O)C[C@H](OC(=O)[C@H](OC(=O)N(C)CCN(C)*)[C@@H](NC(=O)c4ccccc4)c4ccccc4)C(C)=C1C3(C)C)[C@]1(OC(C)=O)CO[C@@H]1C[C@@H]2O; Dolaproine = CO[C@@H]([C@@H]1CCCN1)[C@@H](C)C(=O)O; Dil = CC[C@H](C)[C@H](NC)[C@@H](CC(=O)O)OC; Fmoc = O=C(OCC1c2ccccc2-c2ccccc21)*; PABC = O=C(OCc1ccc(N[*:1])cc1)[*:2]; X1 = C[C@@H](N*)[C@@H](O)c1ccccc1; NMeV = CN[C@H](C(=O)O)C(C)C

One data set has as its system U87MG cancer cell lines. On the set-up: method as in PMID 37492088. To be noted: short-contact time antiproliferative assay; earlier work of the authors; read-out: IC50 against U87MG cancer cell lines; cited from earlier work.
The nature of data set [1]: human liver S9 fraction (male, pooled, Xeno-tech). The settings on record: 37 °C, up to 90 minutes.
Data set [2] can be described thus: rat plasma (Strain: Sprague Dawley; Innovative Research). To be noted: 37 °C, up to 4 hours.
The test system of data set [3] is bovine spleen Cathepsin B (SigmaAldrich C6286, ≥10 units/mg protein). The data set can be described thus: activated Cathepsin B (1.12 u/mL) in 20 mM NaOAc, 1 mM EDTA, pH 5.4, with L-cysteine. The settings on record: 37 °C, up to 24 h.
A short description of data set [4]: human plasma (Pooled; Innovative Research). The settings on record: 37 °C, up to 4 hours.
Data set [5] in a line: rat liver S9 fraction (male, pooled, Xeno-tech). The settings on record: 37 °C, up to 90 minutes.
The test system of data set [6] is Cathepsin B (SigmaAldrich C6286). As to the kind of experiment: bovine spleen Cathepsin B in 20 mM NaOAc, 1 mM EDTA, pH 5.4, activated with L-cysteine. To be noted: 37 °C, up to 24 h.

The term IC50 denotes the concentration that inhibits the measured activity by half.

Turning to `CC[C@H](C)[C@@H]([C@@H](CC(=O)N1CCC[C@H]1[C@H](OC)[C@@H](C)C(=O)N[C@H](C)[C@@H](O)c1ccccc1)OC)N(C)C(=O)[C@@H](NC(=O)[C@@H](NC)C(C)C)C(C)C` [MMAE, monomethyl auristatin E] (H-[NMeV]V[Dil][Dolaproine]-X1), the IC50 in the data set with U87MG cancer cell lines is 2130 nM.

On to “Fmoc-GFLG-PABC-diamine-PTX (Fmoc-GFLG[PABC]-{Paclitaxel(2'-OCO-DMEDA)}; SMILES CC(=O)O[C@H]1C(=O)[C@@]2(C)[C@H]([C@H](OC(=O)c3ccccc3)[C@]3(O)C[C@H](OC(=O)[C@H](OC(=O)N(C)CCN(C)C(=O)OCc4ccc(NC(=O)CNC(=O)[C@H](CC(C)C)NC(=O)[C@H](Cc5ccccc5)NC(=O)CNC(=O)OCC5c6ccccc6-c6ccccc65)cc4)[C@@H](NC(=O)c4ccccc4)c4ccccc4)C(C)=C1C3(C)C)[C@]1(OC(C)=O)CO[C@@H]1C[C@@H]2O)”, for which the values for the not cleaved in data set [1], in data set [2] and in data set [4] were 95.232% remaining at 90 min, 103.3% remaining at 240 min and 93.9% remaining at 240 min, respectively. Further, in data set [3], the cleaved bond entry is on record as “Gly-Phe, 2 min; also recorded: Gly-PABC”. The fragment found result in data set [3] was “diamine-PTX (fragment II)”.

Consider Fmoc-GPLG-PABC-diamine-PTX, for which the not cleaved entry is “more than 94% intact after 1.5 h (Table S7: 94.986% at 90 min)” in data set [1]; 100% of residual compound after 4 h (Table S7: 103.0% at 240 min) in data set [2]; “more than 94% intact after 1.5 h (Table S7: 94.464% at 90 min)” in data set [5]; “no cleavage between Gly and Pro residues was observed throughout the experiment time” in data set [3]; 100% of residual compound after 4 h (Table S7: 112.1% at 240 min) in data set [4]. Also, the cleaved bond result in data set [3] was “Gly-PABC, first_seen, 2 min”. Also, the fragment found entry in data set [3] was “diamine-PTX (fragment II), 2 min; also recorded: free PTX, 24 h”.

In the case of Fmoc-VA-PABC-diamine-PTX, the not cleaved was 108.0% remaining at 240 min in data set [2] and 107.1% remaining at 240 min in data set [4]. For the same compound, the fragment found result in data set [3] is on record as “PABC-diamine-PTX (fragment I); also recorded: diamine-PTX (fragment II)”; in data set [6], “PABC-diamine-PTX (fragment I)”.

Regarding Fmoc-VCit-PABC-diamine-PTX, in data set [2], the not cleaved amounted to 118.1% remaining at 240 min. Moreover, the figures for the fragment found entry in data set [3] and in data set [6] were “PABC-diamine-PTX (fragment I); also recorded: diamine-PTX (fragment II)” and “PABC-diamine-PTX (fragment I)”, respectively.
